Experimental data: article PMC8583936, “Machine Learning Assisted Approach for Finding Novel High Activity Agonists of Human Ectopic Olfactory Receptors” (International Journal of Molecular Sciences, 2021)
Where “and” joins values, the source holds several entries; their conditions need not be identical. Equal values may be shown once.

Tests used:
OR2W1 [1] = target: T1, OR2W1 (Homo sapiens, UniProt Q9Y3N9); conditions: cited from earlier work
T1 sequence (Q9Y3N9 1-320): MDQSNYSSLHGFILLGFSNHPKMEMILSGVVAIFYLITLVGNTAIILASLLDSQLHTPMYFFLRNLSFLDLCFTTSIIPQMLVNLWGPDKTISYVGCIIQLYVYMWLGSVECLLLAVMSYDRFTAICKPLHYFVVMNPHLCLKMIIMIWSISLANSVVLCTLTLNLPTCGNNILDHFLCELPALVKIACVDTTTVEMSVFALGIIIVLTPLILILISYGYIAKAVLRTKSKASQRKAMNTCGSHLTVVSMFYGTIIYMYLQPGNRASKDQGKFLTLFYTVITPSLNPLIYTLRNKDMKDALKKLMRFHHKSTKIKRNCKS

OR1A1 [2] = target: T2, OR1A1 (Homo sapiens, UniProt Q9P1Q5); assay: Dual-Glo luciferase reporter gene assay, OR1A1 in Hana3A cells; format: cell-based; design: The open reading frames of ORs were amplified using Phusion polymerase; Rho-tag (first 20 amino acids of human rhodopsin) (N); expressed in transfected cells; host or cells: Hana3A cells (derived from HEK293T), pCI vector; co-transfected with human RTP1S, M3 receptor, CRE-Luc and SV40-RL; conditions: OR1A1; for normilazed value = (L-400/R-400): three replicates
T2 sequence (Q9P1Q5 1-309): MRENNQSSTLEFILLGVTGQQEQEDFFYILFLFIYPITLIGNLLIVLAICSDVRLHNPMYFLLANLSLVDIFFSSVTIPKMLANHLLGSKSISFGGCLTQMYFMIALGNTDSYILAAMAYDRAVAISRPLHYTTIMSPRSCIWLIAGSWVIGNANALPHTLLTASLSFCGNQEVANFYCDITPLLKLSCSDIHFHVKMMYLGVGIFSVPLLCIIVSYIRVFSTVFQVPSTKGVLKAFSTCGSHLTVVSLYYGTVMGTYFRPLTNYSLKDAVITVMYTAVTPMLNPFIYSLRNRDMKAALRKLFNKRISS
Description: (§1) Hana3A cells were maintained in minimal essential medium containing 10% FBS (vol/vol) with penicillin-streptomycin and amphotericin B (1/200 each vol/vol) at 37 °C and 5% CO2. Hana3A cells are derived from HEK293T [57] and are optimized for OR studies as shown in several studies, compared to earlier OR expression in Sf9 insect cells in Gat et al., and in Xenopus oocytes, COS-7, PC12h and CHO-K1 cells in Katada et al..
(§2) The Dual-Glo luciferase assay system (Promega, Madison, WI, USA) was used to evaluate the functionality of wild-type OR1A1 and OR2W1 in an in vitro system. The open reading frames of ORs were amplified using Phusion polymerase (Thermo Fisher Scientific, Waltham, MA, USA). Amplified fragments were cloned into pCI expression vector (Promega, Madison, WI, USA) containing the sequence encoding the first 20 amino acids of human rhodopsin (Rho-tag) at N-terminal. Hana3A cells have been cultured and plated the day before transfection with 6 mL at 1/10 of a 100% confluence 100 mm plate into 96-well plates coated with poly D-lysine. After overnight incubation, the required genes were transfected using, for each plate, 5 ng SV40-RL, 10 ng CRE-Luc, 5 ng human RTP1S [72], 2.5 ng M3 receptor [73] and 5 ng of receptor (OR1A1, OR2W1 or empty vector Rho-pCI) plasmid. After around 18 h of transfection, cells were stimulated during 3.5 h by 25 µL of odorant diluted in CD293 + 1% glutamine + 30 µM CuCl2. Odorants were obtained from Sigma Aldrich (St. Louis, MO, USA) and diluted at 1 M concentration in DMSO as stock solutions. […] The luminescence of Firefly (Luc) and Renilla (Rluc) luciferase, were then sequentially monitored by injecting the corresponding substrate following the supplier’s protocol. The activity in each well was normalized as (Luc-400)/(Rluc-400). The response of the receptor was also normalized to its basal activity as (NLX/NL0)-1 where NL0 is the normalized luminescence value at 0 µM of odorant and NLX the value at X µM. […] Raw results were first analyzed with Excel (Microsoft Corporation, Albuquerque, NM, USA) and dose response curves, max efficacy and EC50 have been determined with GraphPrism 6 software (GraphPad Software, La Jolla, CA, USA). Areas under the curves (AUC) were calculated in Excel by summing all the OR responses at different concentrations for each odorant.

OR2W1 [3] = target: T1, OR2W1; assay: Dual-Glo luciferase reporter gene assay, OR2W1 in Hana3A cells; format: cell-based; design: The open reading frames of ORs were amplified using Phusion polymerase; Rho-tag (first 20 amino acids of human rhodopsin) (N); expressed in transfected cells; host or cells: Hana3A cells (derived from HEK293T), pCI vector; co-transfected with human RTP1S, M3 receptor, CRE-Luc and SV40-RL; conditions: OR2W1; for normilazed value = (L-400/R-400): log[molecule], three replicates
Description: as §1, §2

OR1A1 [4] = target: T2, OR1A1; conditions: cited from earlier work
[5] = log(agonist) vs. response (three parameters), 95% CI (profile likelihood), normalized (L-400/R-400)

Compound: O=C(c1ccccc1)c1ccccc1 [Benzophenone]
- Class (agonist / non-agonist / antagonist / conflicting info.) for OR2W1 (OR2W1 [1]): agonist
- Bottom (OR1A1 [2]; [5]): -1.851 to 2.543
- Top (OR1A1 [2]; [5]): 11.67 to 14.46
- normilazed value = (L-400/R-400) (OR1A1 [2]; log[molecule], M = -3.5): 7.459 and 7.533 and 8.1639
- normilazed value = (L-400/R-400) (OR1A1 [2]; log[molecule], M = -3.75): 11.5068 and 9.986 and 11.6353
- normilazed value = (L-400/R-400) (OR1A1 [2]; log[molecule], M = -4): 12.912 and 14.5062 and 13.7456
- normilazed value = (L-400/R-400) (OR1A1 [2]; log[molecule], M = -4.25): 14.2415 and 16.6502 and 17.5965
- normilazed value = (L-400/R-400) (OR1A1 [2]; log[molecule], M = -4.5): 12.7776 and 13.5787 and 13.5772
- normilazed value = (L-400/R-400) (OR1A1 [2]; log[molecule], M = -4.75): 11.0413 and 12.4085 and 13.0495
- normilazed value = (L-400/R-400) (OR1A1 [2]; log[molecule], M = -5): 8.171 and 9.262 and 9.035
- normilazed value = (L-400/R-400) (OR1A1 [2]; log[molecule], M = -5.25): 6.73 and 6.359 and 7.725
- normilazed value = (L-400/R-400) (OR1A1 [2]; log[molecule], M = -5.5): 4.815 and 4.814 and 5.195
- normilazed value = (L-400/R-400) (OR1A1 [2]; log[molecule], M = -5.75): 3.111 and 2.689 and 2.548
- normilazed value = (L-400/R-400) (OR1A1 [2]; log[molecule], M = -6): 2.109 and 2.273 and 2.067
- EC50 (OR1A1 [2]; three-parameter fit, 95% CI (profile likelihood)): 2.47 to 8.3 µM
- LogEC50 (OR1A1 [2]; three-parameter fit, 95% CI (profile likelihood), log[molecule], M): -5.608 to -5.081
- Bottom (OR2W1 [3]; [5]): 9.831 to 25.58
- Top (OR2W1 [3]; [5]): 33.11 to 38.76
- normilazed value = (L-400/R-400) (OR2W1 [3]; M = -3.5): 18.7324 and 22.6176 and 22.52
- normilazed value = (L-400/R-400) (OR2W1 [3]; M = -3.75): 27.3072 and 27.4246
- normilazed value = (L-400/R-400) (OR2W1 [3]; M = -4): 38.4836
- normilazed value = (L-400/R-400) (OR2W1 [3]; M = -4.25): 38.5091 and 37.4777
- normilazed value = (L-400/R-400) (OR2W1 [3]; M = -4.5): 37.1848 and 47.4935
- normilazed value = (L-400/R-400) (OR2W1 [3]; M = -4.75): 39.8168 and 41.5774 and 37.3522
- normilazed value = (L-400/R-400) (OR2W1 [3]; M = -5): 38.9191 and 40.737 and 39.7699
- normilazed value = (L-400/R-400) (OR2W1 [3]; M = -5.25): 38.6807 and 38.6347 and 47.5267
- normilazed value = (L-400/R-400) (OR2W1 [3]; M = -5.5): 41.7726 and 40.3216 and 44.1867
- normilazed value = (L-400/R-400) (OR2W1 [3]; M = -6): 27.5667 and 27.048
- Class (agonist / non-agonist / conflicting info.) for OR1A1 (OR1A1 [4]): agonist
